Reference: patent US20080268078A1, “Composition for inhibiting nitric oxide and/or prostaglandin E2 synthesis and method for inhibiting inflammation” (Yangsen Biotechnology Co., Ltd., priority 2007, published 2008)
Like-named read-outs stand apart in the source and are kept apart here.

Experiments:
Assay type in all cases: cell-based, murine
RAW264.7 cell = assay: Cell viability assay (MTT); conditions: 50 μM to 1000 μM (citronellol to 750 μM), LPS-stimulated, 20 hours
[1] = tested on: prostaglandin E2 synthesis in RAW 264.7 cells; assay: Suppression of prostaglandin E2 synthesis (EIA) in LPS-stimulated RAW 264.7 cells; conditions: Mus musculus, read-out: IC50 of prostaglandin E2 synthesis
Experimental: (§1) The murine macrophage/monocyte RAW 264.7 cells were obtained from the American Type Culture Collection (ATCC) and maintained in Dulbecco's modified Eagle's medium (DMEM) with 10% fetal bovine serum at 37° C. in 5% CO2 humidified air. In this example, cells were plated at a density of 10^6 cells/ml in 96-well plates for 24 hours, and then stimulated with LPS (100 ng/ml) in the presence of different concentrations of butylidene phthalide, citronellol, or geraniol. After 20 hours, the supernatant of the medium was collected and analyzed. In nitric oxide analysis, the concentration of butylidene phthalide was 250 μM, 500 μM, and 1000 μM, the concentration of citronellol was 50 μM, 500 μM, and 750 μM, and the concentration of geraniol was 50 μM, 500 μM, 750 μM, and 1000 μM, separately. In the control group, the cells were not treated with butylidene phthalide, citronellol, or geraniol. Because nitric oxide was unstable, nitrite was detected (Green et al., 1981; Kang et al., 1999a). 80 μl of the culture medium were mixed with an equal volume of Griess reagent (0.1% naphthylethylenediamine dihydrochloride and 1% sulfanilamide in 5% phosphoric acid), and then the absorbance at 550 nm was measured. The nitrite concentration was determined using a curve calibrated on sodium nitrite standards. […] Referring to FIGS. 1a-1c, butylidene phthalide, citronellol, and geraniol can suppress the synthesis of nitric oxide, wherein the suppression ability of citronellol was better than butylidene phthalide or geraniol, separately.
The same procedure carried out in Example 1 was repeated with the exception that the detection of the nitric oxide was changed to detect prostaglandin E2 by prostaglandin E2-monoclonal enzyme immunoassay kit (EIA, Cayman Chem., Ann Arbor, Mich.). The concentration of butylidene phthalide was 5 μM, 50 μM, 250 μM, 500 μM, and 1000 μM, the concentration of citronellol was 50 μM, 500 μM, and 750 μM and the concentration of geraniol was 50 μM, 500 μM, and 750 μM, separately. […]

[2] = tested on: nitric oxide synthesis in RAW 264.7 cells; assay: Suppression of nitric oxide synthesis (nitrite, Griess reagent) in LPS-stimulated RAW 264.7 cells; conditions: Mus musculus, read-out: IC50 (inhibitory concentration at 50%) of nitric oxide synthesis
Experimental: as §1

[3] = RAW264.7, RAW 264.7 cells, LPS 100 ng/ml, 20 hours, PGE2 EIA kit
[4] = RAW264.7, RAW 264.7 cells, LPS 100 ng/ml, 20 hours, nitrite by Griess reagent

Compound | RAW264.7 cell viability by MTT assay (RAW264.7 cell) | IC50 ([1]; RAW264.7, 20 h) | IC50 ([2]; RAW264.7, 20 h) | IC50 [1, 3] | IC50 [2, 4]
CCCC=C1OC(=O)c2ccccc21 [butylidene phthalide] | did not affect cell viability | 49.6 µM | 406 µM | – | –
CC(C)=CCC/C(C)=C/CO [geraniol] | – | – | – | 372 µM | 403 µM
CC(C)=CCCC(C)CCO (stereo not shown) [citronellol] | – | – | – | 26.9 µM | 295 µM
